Laboratory results published in the supplement of paper PMC10307832.

Experiments:
Assay in all cases: relative viability (nuclei count vs DMSO), 5 days (fraction); higher = more cells survive
XMD13-2 + Luminespib = compound: C1CC1C(=O)NC2=NNC3=C2C=CC(=C3)C4=CC(=CC=C4)C(=O)NC5CC5 [XMD13-2] + CCNC(=O)c1noc(-c2cc(C(C)C)c(O)cc2O)c1-c1ccc(CN2CCOCC2)cc1 [Luminespib] (partner 0.01 µM)
Outline: (§1)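 After 5 days of treatment, lung cancer cells in 1536-well plates were fixed and stained in a single step (final 0.05% Triton X-100, 1% formaldehyde, 1 ug/ml Hoechst) and their nuclei counted on 4× images. Treatment had been applied by pin tool the day after seeding as one drug alone or as a fixed anchor-drug dose with five library-drug doses (not always all listed) in √10 steps. Relative viability is the nuclei count of treated wells divided by that of vehicle wells, and values are medians of duplicate plates.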

XMD13-2 + Olaparib = compound: C1CC1C(=O)NC2=NNC3=C2C=CC(=C3)C4=CC(=CC=C4)C(=O)NC5CC5 [XMD13-2] + O=C(c1cc(Cc2n[nH]c(=O)c3ccccc23)ccc1F)N1CCN(C(=O)C2CC2)CC1 [Olaparib] (partner 8 µM)
Outline: as §1

ALW-II-49-7 + Olaparib = compound: Cc1ccc(C(=O)Nc2cccc(C(F)(F)F)c2)cc1Nc1cncc(C(N)=O)c1 [ALW-II-49-7] + O=C(c1cc(Cc2n[nH]c(=O)c3ccccc23)ccc1F)N1CCN(C(=O)C2CC2)CC1 [Olaparib] (partner 8 µM)
Outline: as §1

| Cell Line | relative viability (XMD13-2 + Luminespib; first compound 0.05 µM) | relative viability (XMD13-2 + Luminespib; first compound 0.1581 µM) | relative viability (XMD13-2 + Luminespib; first compound 0.5 µM) | relative viability (XMD13-2 + Luminespib; first compound 1.581 µM) | relative viability (XMD13-2 + Luminespib; first compound 5 µM) | relative viability (XMD13-2 + Olaparib; first compound 0.05 µM) | relative viability (XMD13-2 + Olaparib; first compound 0.1581 µM) | relative viability (XMD13-2 + Olaparib; first compound 0.5 µM) | relative viability (XMD13-2 + Olaparib; first compound 1.581 µM) | relative viability (XMD13-2 + Olaparib; first compound 5 µM) | relative viability (ALW-II-49-7 + Olaparib; first compound 0.08 µM) | relative viability (ALW-II-49-7 + Olaparib; first compound 0.253 µM) | relative viability (ALW-II-49-7 + Olaparib; first compound 0.8 µM) | relative viability (ALW-II-49-7 + Olaparib; first compound 2.53 µM) | relative viability (ALW-II-49-7 + Olaparib; first compound 8 µM) |
| --- | --- | --- | --- | --- | --- | --- | --- | --- | --- | --- | --- | --- | --- | --- | --- |
| NCI-H661 | 0.904 | 0.907 | 0.904 | 0.953 | 0.725 | 0.728 | 0.671 | 0.739 | 0.767 | 0.66 | 0.736 | 0.85 | 0.762 | 0.801 | 0.733 |
| LOU-NH91 | 0.355 | 0.318 | 0.374 | 0.347 | 0.318 | 0.976 | 0.958 | 0.97 | 0.869 | 0.944 | 0.846 | 0.946 | 0.923 |  | 0.805 |
| LXF-289 | 0.717 | 0.618 | 0.72 | 0.76 | 0.723 | 1.28 | 1.03 | 1.15 | 0.99 | 1.05 | 1.02 | 0.909 | 1.09 | 1.26 | 1.09 |
| HCC-44 | 1.28 | 1.12 | 1.17 | 1.06 | 1.03 | 1.01 | 0.983 | 0.974 | 1.03 | 0.986 | 0.928 | 1.04 | 0.995 | 0.957 | 0.935 |
| HARA | 0.995 | 0.654 | 0.779 | 0.772 | 0.707 | 0.76 | 1.11 | 0.831 | 0.987 | 0.643 | 0.556 | 0.584 | 0.551 | 0.626 | 1.07 |
| 201T | 1.03 | 1.03 | 1.11 | 1.01 | 1.12 | 0.851 | 0.866 | 0.856 | 0.811 | 0.876 | 0.846 | 0.844 | 0.844 | 0.873 | 0.69 |
| LC-2-ad | 1.16 | 1.06 | 0.973 | 0.992 | 0.952 | 0.684 | 0.716 | 0.681 | 0.701 | 0.718 | 0.736 | 0.793 | 0.682 | 0.721 | 0.343 |
| NCI-H596 | 0.987 | 1 | 0.909 | 0.903 | 1.2 | 0.703 | 0.729 | 0.738 | 0.704 | 0.769 | 0.523 | 0.616 | 0.774 | 0.599 | 0.757 |
| NCI-H1437 | 1.16 | 1.14 | 1.1 | 1.04 | 1.19 | 0.61 | 0.617 | 0.64 | 0.64 | 0.634 | 0.611 | 0.631 | 0.658 | 0.647 | 0.601 |
| NCI-H727 | 0.475 | 0.326 | 0.352 | 0.34 | 0.378 | 0.679 | 0.711 | 0.683 | 0.74 | 0.647 | 0.663 | 0.843 | 0.603 | 0.501 | 0.597 |
| PC-3 [JPC-3] | 0.681 | 0.661 | 0.64 | 0.776 | 0.782 | 1.16 | 1.12 | 1.12 |  | 1.05 | 0.693 | 1.2 | 1.24 | 1.05 | 1 |
